IC50 data for 29 compounds are collected here from patent US11718631B2, “Sulphonamides and compositions thereof for treating conditions associated with NLRP activity” (Novartis AG, priority 2017, dated 2023).

Read-outs that look alike come from different tables or passages of the source.

The target of this experiment is T1, NLRP3 (Homo sapiens, UniProt Q96P20).
T1 construct: IL-1β Production in PMA-Differentiated THP-1 Cells Stimulated with Gramicidin; host or cells: THP-1 cells, PMA-differentiated
T1 sequence (Q96P20 whole entry): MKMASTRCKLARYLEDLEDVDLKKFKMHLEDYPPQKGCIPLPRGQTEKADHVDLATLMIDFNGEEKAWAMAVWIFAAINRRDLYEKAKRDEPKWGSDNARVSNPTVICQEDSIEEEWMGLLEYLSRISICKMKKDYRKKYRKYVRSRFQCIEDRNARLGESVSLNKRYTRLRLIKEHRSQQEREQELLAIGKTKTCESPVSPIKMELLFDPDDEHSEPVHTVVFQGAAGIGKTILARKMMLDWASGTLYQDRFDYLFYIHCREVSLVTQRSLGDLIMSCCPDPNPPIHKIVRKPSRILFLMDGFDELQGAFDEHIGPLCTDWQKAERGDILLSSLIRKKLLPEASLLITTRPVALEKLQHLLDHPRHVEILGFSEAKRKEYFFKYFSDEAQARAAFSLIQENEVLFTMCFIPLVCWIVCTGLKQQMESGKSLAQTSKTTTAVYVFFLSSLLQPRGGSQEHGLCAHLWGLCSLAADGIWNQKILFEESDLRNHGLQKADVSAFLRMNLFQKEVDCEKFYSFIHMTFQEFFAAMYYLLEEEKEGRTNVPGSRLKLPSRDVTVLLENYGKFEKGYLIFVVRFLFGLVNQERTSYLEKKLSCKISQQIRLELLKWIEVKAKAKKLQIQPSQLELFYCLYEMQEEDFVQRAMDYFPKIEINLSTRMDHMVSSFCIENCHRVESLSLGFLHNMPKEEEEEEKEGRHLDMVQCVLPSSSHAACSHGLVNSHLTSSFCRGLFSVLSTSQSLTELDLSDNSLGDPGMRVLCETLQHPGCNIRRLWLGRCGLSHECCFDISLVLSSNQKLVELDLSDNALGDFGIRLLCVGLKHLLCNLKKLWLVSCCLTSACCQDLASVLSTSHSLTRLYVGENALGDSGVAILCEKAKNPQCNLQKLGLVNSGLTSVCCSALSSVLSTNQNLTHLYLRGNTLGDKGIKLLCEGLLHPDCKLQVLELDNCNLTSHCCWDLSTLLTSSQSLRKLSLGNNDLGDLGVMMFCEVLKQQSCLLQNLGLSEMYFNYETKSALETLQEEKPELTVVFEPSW
As to the kind of experiment: IL-1β production in PMA-differentiated THP-1 cells stimulated with gramicidin (hTHP-1 assay). It counts as cell-based. Conditions: hTHP-1 assay containing 2% fetal bovine serum, read-out: NLRP3 Antagonist, human THP1 NLRP3, IL-1b, Normalized: GeoMean IC50. The method, then: IL-1β Production in PMA-Differentiated THP-1 Cells Stimulated with Gramicidin.
THP-1 cells were purchased from the American Type Culture Collection and sub-cultured according to instructions from the supplier. […] Prior to the experiment THP-1 were treated with PMA (Phorbol 12-myristate 13-acetate) (20 ng/ml) for 16-18 hours. On the day of the experiment the media was removed and adherent cells were detached with trypsin for 5 minutes. […] A vehicle only control was run concurrently with each experiment. Final DMSO concentration was 0.38%.
THP-1 cells were purchased from the American Type Culture Collection and sub-cultured according to instructions from the supplier. […] Prior to the experiment THP-1 were treated with PMA (Phorbol 12-myristate 13-acetate) (20 ng/ml) for 16-18 hours. Compounds were dissolved in dimethyl sulfoxide (DMSO) to generate a 30 mM stock. On the day of the experiment the media was removed and adherent cells were detached with trypsin for 5 minutes. […] Final DMSO concentration was at 0.37%. Cells were incubated with compounds for 1 hour and then stimulated with gramicidin (5 μM) (Enzo) for 2 hours. Plates were then centrifuged at 340 g for 5 min. Cell free supernatant (40 μL) was collected using a 96-channel PlateMaster (Gilson) and the production of IL-1p was evaluated by HTRF (cisbio).
IL-1p Production in PMA-Differentiated THP-1 Cells Stimulated with Gramicidin.
THP-1 cells were purchased from the American Type Culture Collection and sub-cultured according to instructions from the supplier. […] Prior to the experiment, compounds were dissolved in dimethyl sulfoxide (DMSO) to generate a 30 mM stock. […] DMSO was backfilled in the plate to achieve a final DMSO assay concentration of 0.37%. The plate was then sealed and stored at room temperature until required.
THP-1 cells were treated with PMA (Phorbol 12-myristate 13-acetate) (20 ng/ml) for 16-18 hours. On the day of the experiment the media was removed and adherent cells were detached with trypsin for 5 minutes. […] The plates were incubated for 18 h at 4° C. and read using the preset HTRF program (donor emission at 620 nm, acceptor emission at 668 nm) of the SpectraMax i3x spectrophotometer (Molecular Devices, software SoftMax 6).

The mark [1] stands for this setting: average IC50, given as numeric bound.

On to `Cc1cc(-c2cc(C(C)C)c(CC(=O)NS(=O)(=O)c3ccc(CN(C)C)cc3)c(C(C)C)c2)ccc1F` [Compound 101], for which, for the setting “average IC50, class symbols”, the concentration for half-maximal inhibition (IC50) (commonly the point on the concentration scale where inhibition reaches its midpoint) lay in the range of 200 to 1000 nM.
For the compound `CC(C)c1cc(-c2ccccc2OCc2ccccc2)cc(C(C)C)c1CC(=O)NS(=O)(=O)c1ccc(CN(C)C)cc1` [Compound 102, N-[4-[(dimethylamino)methyl]phenyl] sulfonyl-2-[4-(2-phenylmethoxy-phenyl)-2,6-di(propan-2-yl)phenyl]acetamide], the IC50 (average IC50, class symbols) fell in the range of 5000 to 30000 nM.
For the compound `CC(C)c1cc(-c2cnn(C)c2)cc(C(C)C)c1CC(=O)NS(=O)(=O)c1ccc(CN(C)C)cc1` [Compound 106, N-[4-[(dimethylamino)methyl]phenyl] sulfonyl-2-[4-(1-methylpyrazol-4-yl)-2,6-di(propan-2-yl)phenyl] acetamide], the half-maximal inhibitory concentration (IC50) under setting [1] was more than 30000 nM.
As for `CC(C)c1cc(C2=CCCC2)cc(C(C)C)c1CC(=O)NS(=O)(=O)c1ccc(CN(C)C)cc1` [Compound 107, 2-[4-(cyclopenten-1-yl)-2,6-di(propan-2-yl)phenyl]-N-[4-[(dimethylamino)methyl]phenyl] sulfonylacetamide], where the note is “average IC50, class symbols”, the IC50 was in the range of 1000 to 5000 nM.
Still for that read-out and setting: the same measure for `CC(C)c1cc(-c2cccc(Cl)c2)cc(C(C)C)c1CC(=O)NS(=O)(=O)c1ccc(CN(C)C)cc1` [Compound 108, 2-[4-(3-chlorophenyl)-2,6-di(propan-2-yl)phenyl]-N-[4-[(dimethylamino)methyl]phenyl] sulfonylacetamide]: 200 to 1000 nM; for `Cc1ccc(-c2cc(C(C)C)c(CC(=O)NS(=O)(=O)c3ccc(CN(C)C)cc3)c(C(C)C)c2)cc1` [Compound 110, N-[4-[(dimethylamino)methyl]phenyl] sulfonyl-2-[4-(4-methylphenyl)-2,6-di(propan-2-yl)phenyl] acetamide]: 1000 to 5000 nM; for `Cc1ccc(-c2cc(C(C)C)c(CC(=O)NS(=O)(=O)c3ccc(CN(C)C)cc3)c(C(C)C)c2)cc1F` [Compound 111, N-[4-[(dimethylamino)methyl]phenyl] sulfonyl-2-[4-(3-fluoro-4-methylphenyl)-2,6-di(propan-2-yl)phenyl]acetamide]: 1000 to 5000 nM.
On the same count and under the same terms, the same measure for `CC(C)c1cc(-c2ccc(F)c(Cl)c2)cc(C(C)C)c1CC(=O)NS(=O)(=O)c1ccc(CN(C)C)cc1` [Compound 112, 2-[4-(3-chloro-4-fluorophenyl)-2,6-di(propan-2-yl)phenyl]-N-[4-[(dimethylamino)methyl]phenyl] sulfonylacetamide]: 200 to 1000 nM.
On the same count and under the same terms, the same measure for `CC(C)c1cc(-c2ccc3c(c2)OC(F)(F)O3)cc(C(C)C)c1CC(=O)NS(=O)(=O)c1ccc(CN(C)C)cc1` [Compound 113, 2-[4-(2,2-difluoro-1,3-benzodioxol-5-yl)-2,6-di(propan-2-yl)phenyl]-N-[4-[(dimethylamino)methyl]phenyl] sulfonylacetamide]: 200 to 1000 nM; for `CC(C)c1cc(-c2cccc3cccnc23)cc(C(C)C)c1CC(=O)NS(=O)(=O)c1ccc(CN(C)C)cc1` [Compound 114]: 1000 to 5000 nM; for `CC(C)c1cc(-c2ccc3c(ccn3C(=O)OC(C)(C)C)c2)cc(C(C)C)c1CC(=O)NS(=O)(=O)c1ccc(CN(C)C)cc1` [Compound 115, tert-butyl 5-[4-[2-[[4-[(dimethylamino)methyl]phenyl]sulfonylamino]-2-oxoethyl]-3,5-di(propan-2-yl)phenyl]indole-1-carboxylate]: 5000 to 30000 nM.
Regarding `CC(C)c1cc(-c2ccc(Cl)cc2)cc(C(C)C)c1CC(=O)NS(=O)(=O)c1ccc(CN(C)C)cc1` [Compound 116, 2-[4-(4-chlorophenyl)-2,6-di(propan-2-yl)phenyl]-N-[4-[(dimethylamino)methyl]phenyl] sulfonylacetamide], the IC50 (average IC50, class symbols) was in the range of 1000 to 5000 nM.
Same read-out and setting: the same measure for `Cc1ccc(-c2cc(C(C)C)c(CC(=O)NS(=O)(=O)c3ccc(CN(C)C)cc3)c(C(C)C)c2)cc1Cl` [Compound 117, 2-[4-(3-chloro-4-methylphenyl)-2,6-di(propan-2-yl)phenyl]-N-[4-[(dimethylamino)methyl]phenyl] sulfonylacetamide]: 200 to 1000 nM.
Consider `Cc1ccc(-c2cc(C(C)C)c(CC(=O)NS(=O)(=O)c3ccc(CN(C)C)cc3)c(C(C)C)c2)cc1C` [Compound 118, N-[4-[(dimethylamino)methyl]phenyl] sulfonyl-2-[4-(3,4-dimethylphenyl)-2,6-di(propan-2-yl)phenyl]acetamide], for which, under “average IC50, class symbols”, the IC50 lay in the range of 200 to 1000 nM.
Same read-out and setting: the same measure for `CC(C)c1cc(-c2ccc(Cl)c(Cl)c2)cc(C(C)C)c1CC(=O)NS(=O)(=O)c1ccc(CN(C)C)cc1` [Compound 119, 2-[4-(3,4-dichlorophenyl)-2,6-di(propan-2-yl)phenyl]-N-[4-[(dimethylamino)methyl]phenyl] sulfonylacetamide]: 200 to 1000 nM; for `CC(C)c1cc(-c2ccc(Cl)c(F)c2)cc(C(C)C)c1CC(=O)NS(=O)(=O)c1ccc(CN(C)C)cc1` [Compound 120, 2-[4-(4-chloro-3-fluorophenyl)-2,6-di(propan-2-yl)phenyl]-N-[4-[(dimethylamino)methyl]phenyl] sulfonylacetamide]: 1000 to 5000 nM; for `COc1ccccc1-c1cc(C(C)C)c(CC(=O)NS(=O)(=O)c2ccc(CN(C)C)cc2)c(C(C)C)c1` [Compound 121, N-[4-[(dimethylamino)methyl]phenyl] sulfonyl-2-[4-(2-methoxyphenyl)-2,6-di(propan-2-yl)phenyl] acetamide]: 1000 to 5000 nM.
Take `CC(C)c1cc(C2=CCCN(C(=O)OC(C)(C)C)C2)cc(C(C)C)c1CC(=O)NS(=O)(=O)c1ccc(CN(C)C)cc1` [Compound 122, tert-butyl 5-[4-[2-[[4-[(dimethylamino)methyl]phenyl]sulfonylamino]-2-oxoethyl]-3,5-di(propan-2-yl)phenyl]-3,6-dihydro-2H-pyridine-1-carboxylate]: under setting [1], the IC50 is more than 30000 nM.
In the case of `CC(C)c1cc(-c2ccccc2CO)cc(C(C)C)c1CC(=O)NS(=O)(=O)c1ccc(CN(C)C)cc1` [Compound 124, N-[4-[(dimethylamino)methyl]phenyl] sulfonyl-2-[4-[2-(hydroxymethyl)phenyl]-2,6-di(propan-2-yl)phenyl]acetamide], the IC50 (average IC50, class symbols) fell in the range of 5000 to 30000 nM.
Still for that read-out and setting: the same measure for `CC(C)c1cc(-c2ccccc2S(C)(=O)=O)cc(C(C)C)c1CC(=O)NS(=O)(=O)c1ccc(CN(C)C)cc1` [Compound 125, N-[4-[(dimethylamino)methyl]phenyl] sulfonyl-2-[4-(2-methylsulfonyl-phenyl)-2,6-di(propan-2-yl)phenyl]acetamide]: 5000 to 30000 nM; for `CC(C)c1cc(-c2ccc3ccccc3c2)cc(C(C)C)c1CC(=O)NS(=O)(=O)c1ccc(CN(C)C)cc1` [Compound 139, N-[4-[(dimethylamino)methyl]phenyl] sulfonyl-2-[4-naphthalen-2-yl-2,6-di(propan-2-yl)phenyl] acetamide]: 40 to 200 nM.
On the same count and under the same terms, the same measure for `C/C=C(\C)c1cc(C(C)C)c(CC(=O)NS(=O)(=O)c2ccc(CN(C)C)cc2)c(C(C)C)c1` [Compound 145]: 1000 to 5000 nM; for `Cc1cc(-c2cc(C(C)C)c(CC(=O)NS(=O)(=O)c3ccc(CN(C)C)cc3)c(C(C)C)c2)ccc1Cl` [Compound 146]: 200 to 1000 nM.
On the same count and under the same terms, the same measure for `C=C(C)c1cc(C(C)C)c(CC(=O)NS(=O)(=O)c2ccc(CN(C)C)cc2)c(C(C)C)c1` [Compound 147]: 1000 to 5000 nM.
Take `CC(C)c1cc(Br)cc(C(C)C)c1CC(=O)NS(=O)(=O)c1ccc(CN(C)C)cc1` [Compound 148]: the IC50 (average IC50, class symbols) is 1000 to 5000 nM.
Same read-out and setting: the same measure for `CC(C)c1cc(Cl)cc(C(C)C)c1CC(=O)NS(=O)(=O)c1ccc(CN(C)C)cc1` [Compound 149]: 1000 to 5000 nM; for `CC(C)c1cc(C#CC2CCOCC2)cc(C(C)C)c1CC(=O)NS(=O)(=O)c1ccc(CN(C)C)cc1` [Compound 313, N-{4-[(dimethylamino)methyl]benzene-sulfonyl}-2-{4-[2-(oxan-4-yl)ethynyl]-2,6-bis(propan-2-yl)phenyl}acetamide]: 1000 to 5000 nM.
Regarding `CC(C)c1cc(C2CCc3ccccc3C2)cc(C(C)C)c1CC(=O)NS(=O)(=O)c1ccc(CN(C)C)cc1` (centres unmarked) [Compound 314, 2-[2,6-bis(propan-2-yl)-4-(1,2,3,4-tetrahydronaphthalen-2-yl)phenyl]-N-{4-[(dimethylamino)methyl]benzene-sulfonyl}acetamide], the IC50 (average IC50, class symbols) was 1000 to 5000 nM.
As for `CC(C)c1cc(C2CCOC2)cc(C(C)C)c1CC(=O)NS(=O)(=O)c1ccc(CN(C)C)cc1` (centres unmarked) [Compound 315, N-{4-[(dimethylamino)methyl]benzene-sulfonyl}-2-[4-(oxolan-3-yl)-2,6-bis(propan-2-yl)phenyl]acetamide], the IC50 under setting [1] was more than 30000 nM.
